# Assay results from ChEMBL document CHEMBL3813616, “Discovery of novel 7-azaindoles as PDK1 inhibitors” (Bioorg Med Chem Lett, 2016).
# Tests used:
# Set-up in all cases: scale not given: the % may be the effect or the level left
# [1] = biological target: MAP/microtubule affinity-regulating kinase 3 (Homo sapiens) (UniProt P27448); test: Inhibition of human MARK3 (2 to 729 residues) assessed as enzyme activity at 1 uM using 33P ATP by radioactive filter binding assay
# [2] = biological target: T1, Serine/threonine-protein kinase D1 (Homo sapiens) (UniProt Q15139); test: Inhibition of human PKD1 (2 to 912 residues) assessed as enzyme activity at 1 uM using 33P ATP by radioactive filter binding assay
# T1 sequence (whole entry): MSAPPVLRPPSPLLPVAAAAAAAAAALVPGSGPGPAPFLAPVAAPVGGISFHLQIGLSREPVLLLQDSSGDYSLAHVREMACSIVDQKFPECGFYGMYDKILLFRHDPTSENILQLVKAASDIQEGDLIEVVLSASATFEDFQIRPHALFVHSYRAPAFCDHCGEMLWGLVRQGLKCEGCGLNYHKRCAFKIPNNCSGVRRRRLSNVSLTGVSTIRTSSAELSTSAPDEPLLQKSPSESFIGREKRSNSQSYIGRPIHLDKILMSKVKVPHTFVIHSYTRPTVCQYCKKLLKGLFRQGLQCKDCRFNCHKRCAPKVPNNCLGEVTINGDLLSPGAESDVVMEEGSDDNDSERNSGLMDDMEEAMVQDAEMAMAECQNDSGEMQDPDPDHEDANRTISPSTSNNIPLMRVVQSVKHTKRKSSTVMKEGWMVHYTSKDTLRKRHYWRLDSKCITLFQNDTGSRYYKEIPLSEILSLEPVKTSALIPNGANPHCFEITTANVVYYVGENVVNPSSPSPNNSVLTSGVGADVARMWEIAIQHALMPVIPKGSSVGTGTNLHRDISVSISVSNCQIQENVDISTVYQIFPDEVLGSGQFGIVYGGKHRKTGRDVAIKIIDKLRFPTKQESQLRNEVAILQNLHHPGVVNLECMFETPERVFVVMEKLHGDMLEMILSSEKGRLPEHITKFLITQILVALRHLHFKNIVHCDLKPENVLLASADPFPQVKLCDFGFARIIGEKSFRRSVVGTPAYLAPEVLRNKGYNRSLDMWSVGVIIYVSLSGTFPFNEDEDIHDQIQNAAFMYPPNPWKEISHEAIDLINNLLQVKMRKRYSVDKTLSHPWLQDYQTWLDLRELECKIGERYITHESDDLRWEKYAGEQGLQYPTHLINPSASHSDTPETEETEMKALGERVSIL
# [3] = biological target: Ephrin type-A receptor 2 (Homo sapiens) (UniProt P29317); test: Inhibition of human EPHA2 (591 to 976 residues) assessed as enzyme activity at 1 uM using 33P ATP by radioactive filter binding assay
# [4] = biological target: Proto-oncogene tyrosine-protein kinase Src (Homo sapiens) (UniProt P12931); test: Inhibition of human SRC (1 to 536 residues) assessed as enzyme activity at 1 uM using 33P ATP by radioactive filter binding assay
# [5] = biological target: T2, Eukaryotic elongation factor 2 kinase (Homo sapiens) (UniProt O00418); test: Inhibition of human EF2K (2 to 725 residues) assessed as enzyme activity at 1 uM using 33P ATP by radioactive filter binding assay
# T2 sequence (whole entry): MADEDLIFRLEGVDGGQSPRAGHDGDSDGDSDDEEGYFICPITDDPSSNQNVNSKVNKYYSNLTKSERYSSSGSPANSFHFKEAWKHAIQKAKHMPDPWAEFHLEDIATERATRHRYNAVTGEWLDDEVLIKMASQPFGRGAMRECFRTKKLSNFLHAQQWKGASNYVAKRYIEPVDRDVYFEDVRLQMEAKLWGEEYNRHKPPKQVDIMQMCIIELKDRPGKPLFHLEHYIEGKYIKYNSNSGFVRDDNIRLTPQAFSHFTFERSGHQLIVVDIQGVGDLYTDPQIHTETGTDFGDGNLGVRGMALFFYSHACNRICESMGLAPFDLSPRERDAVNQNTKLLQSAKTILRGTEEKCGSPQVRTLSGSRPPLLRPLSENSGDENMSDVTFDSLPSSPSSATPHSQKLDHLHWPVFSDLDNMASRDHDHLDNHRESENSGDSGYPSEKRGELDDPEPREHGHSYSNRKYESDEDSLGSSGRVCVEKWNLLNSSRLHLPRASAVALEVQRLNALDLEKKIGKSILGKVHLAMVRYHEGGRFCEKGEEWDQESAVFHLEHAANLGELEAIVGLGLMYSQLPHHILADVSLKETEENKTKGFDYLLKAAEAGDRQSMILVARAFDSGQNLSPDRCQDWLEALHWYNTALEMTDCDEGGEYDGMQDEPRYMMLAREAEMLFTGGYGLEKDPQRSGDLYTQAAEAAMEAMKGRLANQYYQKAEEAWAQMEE
# [6] = biological target: Serine/threonine-protein kinase PAK 5 (Homo sapiens) (UniProt Q9P286); test: Inhibition of human PAK5 (2 to 719 residues) assessed as enzyme activity at 1 uM using 33P ATP by radioactive filter binding assay
# [7] = biological target: Tyrosine-protein kinase Yes (Homo sapiens) (UniProt P07947); test: Inhibition of human YES1 (1 to 543 residues) assessed as enzyme activity at 1 uM using 33P ATP by radioactive filter binding assay
# [8] = biological target: T3, Dual specificity tyrosine-phosphorylation-regulated kinase 3 (Homo sapiens) (UniProt O43781); test: Inhibition of human DYRK3 (1 to 588 residues) assessed as enzyme activity at 1 uM using 33P ATP by radioactive filter binding assay
# T3 sequence (whole entry): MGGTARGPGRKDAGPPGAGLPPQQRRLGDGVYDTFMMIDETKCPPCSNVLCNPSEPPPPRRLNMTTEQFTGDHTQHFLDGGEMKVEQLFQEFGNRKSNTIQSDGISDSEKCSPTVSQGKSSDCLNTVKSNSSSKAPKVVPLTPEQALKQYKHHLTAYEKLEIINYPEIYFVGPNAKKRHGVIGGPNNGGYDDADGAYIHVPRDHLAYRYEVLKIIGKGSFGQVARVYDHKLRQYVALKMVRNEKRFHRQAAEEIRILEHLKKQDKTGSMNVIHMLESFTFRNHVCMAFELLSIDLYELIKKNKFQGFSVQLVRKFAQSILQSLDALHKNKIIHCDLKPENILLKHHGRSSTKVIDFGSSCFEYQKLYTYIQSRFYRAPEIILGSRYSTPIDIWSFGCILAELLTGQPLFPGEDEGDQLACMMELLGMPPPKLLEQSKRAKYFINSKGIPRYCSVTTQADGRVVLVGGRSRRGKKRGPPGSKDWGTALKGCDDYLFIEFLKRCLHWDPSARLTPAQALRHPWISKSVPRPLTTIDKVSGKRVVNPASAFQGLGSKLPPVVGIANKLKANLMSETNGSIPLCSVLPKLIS
# [9] = biological target: Fibroblast growth factor receptor 1 (Homo sapiens) (UniProt P11362); test: Inhibition of human FGFR1 (400 to 820 residues) assessed as enzyme activity at 1 uM using 33P ATP by radioactive filter binding assay
# Chain of Fibroblast growth factor receptor 1 (Homo sapiens) (P11362 22-822 limits assumed): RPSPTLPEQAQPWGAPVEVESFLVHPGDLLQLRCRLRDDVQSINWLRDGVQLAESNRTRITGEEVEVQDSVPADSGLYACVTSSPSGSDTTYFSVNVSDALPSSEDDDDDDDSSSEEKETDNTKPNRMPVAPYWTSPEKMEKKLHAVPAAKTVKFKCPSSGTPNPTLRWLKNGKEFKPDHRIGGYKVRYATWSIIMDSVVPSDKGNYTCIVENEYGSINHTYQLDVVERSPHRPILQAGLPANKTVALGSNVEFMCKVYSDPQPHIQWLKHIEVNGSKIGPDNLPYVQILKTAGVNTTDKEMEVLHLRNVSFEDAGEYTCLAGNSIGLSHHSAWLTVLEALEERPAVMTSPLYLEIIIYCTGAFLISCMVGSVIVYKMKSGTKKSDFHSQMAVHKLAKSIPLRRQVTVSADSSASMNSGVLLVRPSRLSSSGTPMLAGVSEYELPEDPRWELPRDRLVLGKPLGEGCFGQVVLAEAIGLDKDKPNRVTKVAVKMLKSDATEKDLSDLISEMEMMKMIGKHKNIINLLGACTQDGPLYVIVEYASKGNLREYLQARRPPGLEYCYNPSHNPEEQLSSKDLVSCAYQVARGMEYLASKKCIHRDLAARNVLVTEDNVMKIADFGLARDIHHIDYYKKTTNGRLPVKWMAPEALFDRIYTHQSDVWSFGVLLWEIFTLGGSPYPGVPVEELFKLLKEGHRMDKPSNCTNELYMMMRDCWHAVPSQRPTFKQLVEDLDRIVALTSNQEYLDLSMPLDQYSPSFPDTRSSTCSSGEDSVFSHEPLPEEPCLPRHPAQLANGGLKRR
# Chain of Ephrin type-A receptor 2 (Homo sapiens) (P29317 whole entry, the tested form may be a part): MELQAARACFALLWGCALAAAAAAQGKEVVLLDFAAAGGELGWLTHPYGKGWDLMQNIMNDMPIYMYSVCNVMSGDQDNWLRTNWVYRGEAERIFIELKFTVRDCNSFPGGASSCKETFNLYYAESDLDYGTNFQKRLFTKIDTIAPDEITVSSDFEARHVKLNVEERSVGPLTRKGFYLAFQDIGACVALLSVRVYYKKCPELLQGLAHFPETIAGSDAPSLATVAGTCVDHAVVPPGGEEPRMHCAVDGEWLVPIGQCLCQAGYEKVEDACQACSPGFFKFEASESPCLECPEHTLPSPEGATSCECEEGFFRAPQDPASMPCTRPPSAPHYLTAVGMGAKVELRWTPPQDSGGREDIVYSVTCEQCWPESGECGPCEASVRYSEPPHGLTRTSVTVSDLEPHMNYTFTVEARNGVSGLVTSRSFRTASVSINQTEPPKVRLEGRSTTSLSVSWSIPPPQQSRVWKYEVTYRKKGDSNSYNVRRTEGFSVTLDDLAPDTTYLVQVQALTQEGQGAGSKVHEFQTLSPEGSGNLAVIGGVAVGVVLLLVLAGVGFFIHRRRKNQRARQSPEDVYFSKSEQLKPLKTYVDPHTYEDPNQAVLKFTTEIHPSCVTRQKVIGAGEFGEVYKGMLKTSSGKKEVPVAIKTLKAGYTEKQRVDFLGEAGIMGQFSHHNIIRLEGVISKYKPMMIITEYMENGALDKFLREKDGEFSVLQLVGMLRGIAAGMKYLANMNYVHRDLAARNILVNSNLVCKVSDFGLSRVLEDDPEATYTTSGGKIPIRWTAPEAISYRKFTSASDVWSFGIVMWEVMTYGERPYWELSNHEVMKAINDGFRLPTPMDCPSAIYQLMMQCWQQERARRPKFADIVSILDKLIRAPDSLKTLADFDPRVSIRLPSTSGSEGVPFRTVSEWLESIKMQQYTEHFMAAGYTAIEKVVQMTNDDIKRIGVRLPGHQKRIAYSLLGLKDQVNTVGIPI
# Chain of Tyrosine-protein kinase Yes (Homo sapiens) (P07947 2-543 limits assumed): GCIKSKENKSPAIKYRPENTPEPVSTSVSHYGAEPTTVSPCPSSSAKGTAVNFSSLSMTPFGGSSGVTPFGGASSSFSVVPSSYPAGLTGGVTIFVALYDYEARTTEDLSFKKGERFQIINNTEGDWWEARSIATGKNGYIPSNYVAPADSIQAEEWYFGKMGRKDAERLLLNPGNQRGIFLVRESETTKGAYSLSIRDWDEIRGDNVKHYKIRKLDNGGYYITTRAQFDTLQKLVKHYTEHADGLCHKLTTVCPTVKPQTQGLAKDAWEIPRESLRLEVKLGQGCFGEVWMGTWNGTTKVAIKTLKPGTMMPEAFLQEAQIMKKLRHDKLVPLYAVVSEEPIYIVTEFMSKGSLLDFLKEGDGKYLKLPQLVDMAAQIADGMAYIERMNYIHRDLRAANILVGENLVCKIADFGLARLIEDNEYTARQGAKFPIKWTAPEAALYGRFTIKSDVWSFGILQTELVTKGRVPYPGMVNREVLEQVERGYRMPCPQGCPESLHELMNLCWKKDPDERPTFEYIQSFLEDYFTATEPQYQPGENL
# Chain of Serine/threonine-protein kinase PAK 5 (Homo sapiens) (Q9P286 whole entry, looked up, the tested form may be a part): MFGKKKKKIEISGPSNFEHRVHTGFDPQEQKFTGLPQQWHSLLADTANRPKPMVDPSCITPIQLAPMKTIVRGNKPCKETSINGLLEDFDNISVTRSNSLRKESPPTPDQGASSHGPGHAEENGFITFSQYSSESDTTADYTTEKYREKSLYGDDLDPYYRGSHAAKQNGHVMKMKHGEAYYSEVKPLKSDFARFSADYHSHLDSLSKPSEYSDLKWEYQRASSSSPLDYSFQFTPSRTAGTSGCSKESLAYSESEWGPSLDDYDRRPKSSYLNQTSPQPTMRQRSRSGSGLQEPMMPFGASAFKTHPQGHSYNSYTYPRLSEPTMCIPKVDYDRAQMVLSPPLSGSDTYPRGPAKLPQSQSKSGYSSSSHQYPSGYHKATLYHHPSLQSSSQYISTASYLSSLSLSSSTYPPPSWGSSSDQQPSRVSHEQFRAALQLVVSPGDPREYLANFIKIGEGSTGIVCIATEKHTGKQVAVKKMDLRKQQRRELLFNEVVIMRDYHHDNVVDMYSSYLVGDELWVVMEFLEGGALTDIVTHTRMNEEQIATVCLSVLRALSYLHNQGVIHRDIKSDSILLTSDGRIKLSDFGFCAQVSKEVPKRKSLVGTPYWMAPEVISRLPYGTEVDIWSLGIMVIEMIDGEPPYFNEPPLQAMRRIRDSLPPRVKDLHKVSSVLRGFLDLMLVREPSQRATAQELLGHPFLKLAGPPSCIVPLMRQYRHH
# Chain of MAP/microtubule affinity-regulating kinase 3 (Homo sapiens) (P27448 whole entry, looked up, the tested form may be a part): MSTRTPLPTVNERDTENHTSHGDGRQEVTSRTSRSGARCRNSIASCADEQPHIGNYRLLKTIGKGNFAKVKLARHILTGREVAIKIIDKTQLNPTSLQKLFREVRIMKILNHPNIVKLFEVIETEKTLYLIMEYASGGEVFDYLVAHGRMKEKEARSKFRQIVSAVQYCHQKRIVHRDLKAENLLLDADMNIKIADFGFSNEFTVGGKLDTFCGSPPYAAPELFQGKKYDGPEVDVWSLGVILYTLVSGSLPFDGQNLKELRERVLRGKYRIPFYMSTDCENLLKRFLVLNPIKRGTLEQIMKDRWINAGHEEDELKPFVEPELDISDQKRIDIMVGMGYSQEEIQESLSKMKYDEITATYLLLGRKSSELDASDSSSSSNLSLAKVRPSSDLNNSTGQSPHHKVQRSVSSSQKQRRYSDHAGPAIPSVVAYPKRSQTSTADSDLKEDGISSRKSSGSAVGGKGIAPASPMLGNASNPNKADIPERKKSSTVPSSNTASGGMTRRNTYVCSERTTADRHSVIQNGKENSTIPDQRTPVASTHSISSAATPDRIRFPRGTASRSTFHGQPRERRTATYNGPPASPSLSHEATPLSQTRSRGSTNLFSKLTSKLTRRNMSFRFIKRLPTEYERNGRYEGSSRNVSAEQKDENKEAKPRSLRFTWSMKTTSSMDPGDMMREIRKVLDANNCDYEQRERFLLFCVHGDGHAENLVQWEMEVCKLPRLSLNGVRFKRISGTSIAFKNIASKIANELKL
# Chain of Proto-oncogene tyrosine-protein kinase Src (Homo sapiens) (P12931 2-536 limits assumed): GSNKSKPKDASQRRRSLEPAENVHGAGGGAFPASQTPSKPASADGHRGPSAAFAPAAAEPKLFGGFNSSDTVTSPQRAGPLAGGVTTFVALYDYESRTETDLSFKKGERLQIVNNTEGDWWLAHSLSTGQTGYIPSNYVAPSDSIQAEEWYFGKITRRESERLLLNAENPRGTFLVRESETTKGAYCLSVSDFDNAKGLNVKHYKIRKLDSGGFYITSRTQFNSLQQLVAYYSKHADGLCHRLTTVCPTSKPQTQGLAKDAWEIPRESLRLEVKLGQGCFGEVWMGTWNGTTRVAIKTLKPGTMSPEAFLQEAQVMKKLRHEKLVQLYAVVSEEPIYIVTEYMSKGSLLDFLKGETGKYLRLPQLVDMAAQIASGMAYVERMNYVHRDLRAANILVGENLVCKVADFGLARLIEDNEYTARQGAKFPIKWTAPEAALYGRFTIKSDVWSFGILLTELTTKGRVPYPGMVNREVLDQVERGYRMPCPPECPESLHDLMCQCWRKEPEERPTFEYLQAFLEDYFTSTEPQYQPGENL
Activity [1],Activity [2],Activity [3],Activity [4],Activity [5],Activity [6],Activity [7],Activity [8],Activity [9],Compound
-58%,-53%,17%,7%,-1%,6%,-21%,-80%,3%,CCCCc1cc(-c2c[nH]c3ncccc23)nc(N)n1
-59%,-41%,25%,-11%,-20%,-30%,2%,-82%,-8%,Nc1nccc(-c2c[nH]c3ncccc23)n1 [MERIOLIN 1]
-95%,-98%,-53%,-68%,-31%,-38%,-78%,-84%,-80%,CCCCc1cc(-c2c[nH]c3ncc(-c4cnn(C5CCNCC5)c4)cc23)nc(N)n1
-89%,-96%,-16%,-34%,3%,200%,-46%,-87%,-79%,CCc1cc(-c2c[nH]c3ncc(-c4cnn(C5CCNCC5)c4)cc23)nc(N)n1
